#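 Interpolation was linear, between the two tested concentrations surrounding the appropriate level; five concentrations were tested over 48 hours in 96-well plates. GI50 = concentration required for 50% inhibition of growth.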 Calls of active or inactive are those of the source. No stated cut-off is given here; in the data, active = GI50 up to about 1.1 µM and inactive = higher.
# Assays:
# Test in all cases: NCI tumour cell line growth inhibition, 48 h
# TK-10 = test system: TK-10
# KM-20L2 = test system: KM-20L2
# NCI-H522 = test system: NCI-H522
# ACHN = test system: ACHN
# DMS-114 = test system: DMS-114
# OVCAR-8 = test system: OVCAR-8
# LOX IMVI = test system: LOX IMVI
# HCT-15 = test system: HCT-15
# SK-MEL-28 = test system: SK-MEL-28
# RPMI-8226 = test system: RPMI-8226
# SF-295 = test system: SF-295
# MOLT-4 = test system: MOLT-4
# HOP-62 = test system: HOP-62
# UACC-62 = test system: UACC-62
# HOP-18 = test system: HOP-18
# LXFL 529 = test system: LXFL 529
# SNB-19 = test system: SNB-19
# HT-29 = test system: HT-29
# SNB-78 = test system: SNB-78
# HOP-92 = test system: HOP-92
# SNB-75 = test system: SNB-75
# RXF 393 = test system: RXF 393
# SF-539 = test system: SF-539
# M19-MEL = test system: M19-MEL
# HCT-116 = test system: HCT-116
# OVCAR-5 = test system: OVCAR-5
# U-251 = test system: U-251
# SK-OV-3 = test system: SK-OV-3
# DMS-273 = test system: DMS-273
# M14 = test system: M14
# COLO 205 = test system: COLO 205
# SN12C = test system: SN12C
# OVCAR-3 = test system: OVCAR-3
# IGROV-1 = test system: IGROV-1
# CAKI-1 = test system: CAKI-1
# UO-31 = test system: UO-31
# NCI-H23 = test system: NCI-H23
# A498 = test system: A498
# UACC-257 = test system: UACC-257
# 786-0 = test system: 786-0
# SW-620 = test system: SW-620
# CCRF-CEM = test system: CCRF-CEM
# K562 = test system: K562
# SR = test system: SR
# EKVX = test system: EKVX
# NCI-H226 = test system: NCI-H226
# SF-268 = test system: SF-268
# SK-MEL-2 = test system: SK-MEL-2
# DLD-1 = test system: DLD-1
# RXF 631 = test system: RXF 631
# Malme-3M = test system: Malme-3M
# SK-MEL-5 = test system: SK-MEL-5
# A549 = test system: A549
# HCC 2998 = test system: HCC 2998
# OVCAR-4 = test system: OVCAR-4
# PC-3 = test system: PC-3
# MDA-N = test system: MDA-N
# Hs-578T = test system: Hs-578T
# MDA-MB-231 = test system: MDA-MB-231
# MCF7 = test system: MCF7
# NCI/ADR-RES = test system: NCI/ADR-RES
# XF498 = test system: XF498
# T47D = test system: T47D
# HL-60 = test system: HL-60
# BT-549 = test system: BT-549
# DU-145 = test system: DU-145
# MDA-MB-435 = test system: MDA-MB-435
# KM12 = test system: KM12
# NCI-H460 = test system: NCI-H460
smiles,measurement,setting,value
N#CCC(=O)N/N=C1/C(=O)NC(=O)C(=O)C1c1nc2ccccc2s1 (stereo not drawn),GI50,TK-10,> 100000 nM (inactive)
same,GI50,KM-20L2,> 100000 nM (inactive)
same,GI50,NCI-H522,> 100000 nM (inactive)
same,GI50,ACHN,> 100000 nM (inactive)
same,GI50,DMS-114,> 100000 nM (inactive)
same,GI50,OVCAR-8,> 100000 nM (inactive)
same,GI50,LOX IMVI,> 100000 nM (inactive)
same,GI50,HCT-15,> 100000 nM
same,GI50,SK-MEL-28,> 100000 nM (inactive)
same,GI50,RPMI-8226,> 100000 nM (inactive)
same,GI50,SF-295,> 100000 nM (inactive)
same,GI50,MOLT-4,> 100000 nM (inactive)
same,GI50,HOP-62,> 100000 nM (inactive)
same,GI50,UACC-62,> 100000 nM (inactive)
same,GI50,HOP-18,> 100000 nM (inactive)
same,GI50,LXFL 529,> 100000 nM (inactive)
same,GI50,SNB-19,> 100000 nM (inactive)
same,GI50,HT-29,> 100000 nM (inactive)
same,GI50,SNB-78,> 100000 nM (inactive)
same,GI50,HOP-92,67500 nM (inactive)
same,GI50,SNB-75,> 100000 nM (inactive)
same,GI50,RXF 393,> 100000 nM (inactive)
same,GI50,SF-539,> 100000 nM (inactive)
same,GI50,M19-MEL,> 100000 nM (inactive)
same,GI50,HCT-116,> 100000 nM (inactive)
same,GI50,OVCAR-5,> 100000 nM (inactive)
same,GI50,U-251,> 100000 nM (inactive)
same,GI50,SK-OV-3,> 100000 nM (inactive)
same,GI50,DMS-273,> 100000 nM (inactive)
same,GI50,M14,> 100000 nM (inactive)
same,GI50,COLO 205,> 100000 nM (inactive)
same,GI50,SN12C,> 100000 nM (inactive)
same,GI50,OVCAR-3,> 100000 nM (inactive)
same,GI50,IGROV-1,> 100000 nM (inactive)
same,GI50,CAKI-1,> 100000 nM (inactive)
same,GI50,UO-31,> 100000 nM (inactive)
same,GI50,NCI-H23,> 100000 nM (inactive)
same,GI50,A498,> 100000 nM (inactive)
same,GI50,UACC-257,> 100000 nM (inactive)
same,GI50,786-0,> 100000 nM (inactive)
same,GI50,SW-620,> 100000 nM (inactive)
same,GI50,CCRF-CEM,> 100000 nM (inactive)
same,GI50,K562,> 100000 nM (inactive)
same,GI50,SR,71800 nM (inactive)
same,GI50,EKVX,> 100000 nM (inactive)
same,GI50,NCI-H226,50100 nM (inactive)
same,GI50,SF-268,> 100000 nM (inactive)
same,GI50,SK-MEL-2,> 100000 nM (inactive)
same,GI50,DLD-1,> 100000 nM (inactive)
same,GI50,RXF 631,> 100000 nM (inactive)
same,GI50,Malme-3M,> 100000 nM (inactive)
same,GI50,SK-MEL-5,> 100000 nM (inactive)
same,GI50,A549,> 100000 nM (inactive)
same,GI50,HCC 2998,> 100000 nM (inactive)
same,GI50,OVCAR-4,> 100000 nM (inactive)
CC1=C(N2CC2)C(=O)C(C)=C(N2CC2)C1=O,GI50,TK-10,289 nM (active)
same,GI50,PC-3,282 nM (active)
same,GI50,KM-20L2,178 nM (active)
same,GI50,NCI-H522,99.8 nM (active)
same,GI50,ACHN,31.5 nM (active)
same,GI50,MDA-N,99.8 nM (active)
same,GI50,DMS-114,129 nM (active)
same,GI50,OVCAR-8,188 nM (active)
same,GI50,LOX IMVI,112 nM (active)
same,GI50,HCT-15,196 nM
same,GI50,SK-MEL-28,356 nM (active)
same,GI50,RPMI-8226,201 nM (active)
same,GI50,SF-295,127 nM (active)
same,GI50,MOLT-4,75.3 nM (active)
same,GI50,HOP-62,102 nM (active)
same,GI50,UACC-62,57.9 nM (active)
same,GI50,HOP-18,451 nM (active)
same,GI50,Hs-578T,933 nM (active)
same,GI50,LXFL 529,200 nM (active)
same,GI50,SNB-19,348 nM (active)
same,GI50,HT-29,175 nM (active)
same,GI50,MDA-MB-231,4010 nM (inactive)
same,GI50,SNB-78,836 nM (active)
same,GI50,HOP-92,170 nM (active)
same,GI50,SNB-75,309 nM (active)
same,GI50,MCF7,21.2 nM (active)
same,GI50,RXF 393,151 nM (active)
same,GI50,SF-539,134 nM (active)
same,GI50,M19-MEL,229 nM (active)
same,GI50,HCT-116,206 nM (active)
same,GI50,NCI/ADR-RES,22.1 nM (active)
same,GI50,OVCAR-5,296 nM (active)
same,GI50,U-251,152 nM (active)
same,GI50,SK-OV-3,310 nM (active)
same,GI50,DMS-273,69.2 nM (active)
same,GI50,M14,189 nM (active)
same,GI50,COLO 205,206 nM (active)
same,GI50,SN12C,113 nM (active)
same,GI50,XF498,132 nM (active)
same,GI50,T47D,208 nM (active)
same,GI50,HL-60,20.6 nM (active)
same,GI50,OVCAR-3,249 nM (active)
same,GI50,IGROV-1,215 nM (active)
same,GI50,CAKI-1,99.1 nM (active)
same,GI50,BT-549,417 nM (active)
same,GI50,UO-31,91.2 nM (active)
same,GI50,NCI-H23,41.2 nM (active)
same,GI50,A498,178 nM (active)
same,GI50,UACC-257,465 nM (active)
same,GI50,786-0,70.2 nM (active)
same,GI50,SW-620,143 nM (active)
same,GI50,CCRF-CEM,43.4 nM (active)
same,GI50,DU-145,46.9 nM (active)
same,GI50,K562,254 nM (active)
same,GI50,MDA-MB-435,288 nM (active)
same,GI50,SR,50 nM (active)
same,GI50,EKVX,697 nM (active)
same,GI50,NCI-H226,309 nM (active)
same,GI50,SF-268,83.4 nM (active)
same,GI50,KM12,279 nM (active)
same,GI50,SK-MEL-2,306 nM (active)
same,GI50,DLD-1,210 nM (active)
same,GI50,Malme-3M,204 nM (active)
same,GI50,SK-MEL-5,155 nM (active)
same,GI50,NCI-H460,< 11.1 nM (active)
same,GI50,A549,112 nM (active)
same,GI50,HCC 2998,161 nM (active)
same,GI50,OVCAR-4,283 nM (active)

# Reference: ChEMBL document CHEMBL1201862, “PubChem BioAssay data set” (2004)
